Drawing on patent US8461328B2, “Tricyclic heterocyclic compounds, compositions and methods of use thereof” (Genentech, Inc., priority 2010, dated 2013), this text covers Ki for 24 compounds.

Assay type in all cases: biochemical
The target in one experiment is T1, JAK2 (Homo sapiens, UniProt O60674).
T1 construct: made in house; host or cells: SF9 insect cells (baculovirus)
In words: JAK2 inhibition (Table 4). The settings on record: read-out: JAK2 Ki.

A further experiment concerns the target T2, JAK3 (Homo sapiens, UniProt P52333).
T2 construct: made in house; host or cells: SF9 insect cells (baculovirus)
In words: JAK3 inhibition (Table 4). The settings on record: read-out: JAK3 Ki.

The target in a further experiment is T3, JAK1 (Homo sapiens, UniProt P23458).
T3 construct: made in house; host or cells: SF9 insect cells (baculovirus)
The experiment in a line: JAK1 inhibition (Table 4). Particulars: read-out: JAK1 Ki.

The next experiment addresses T4, TYK2 (Homo sapiens, UniProt P29597).
T4 construct: made in house; host or cells: SF9 insect cells (baculovirus)
T4 sequence (P29597 873-1187): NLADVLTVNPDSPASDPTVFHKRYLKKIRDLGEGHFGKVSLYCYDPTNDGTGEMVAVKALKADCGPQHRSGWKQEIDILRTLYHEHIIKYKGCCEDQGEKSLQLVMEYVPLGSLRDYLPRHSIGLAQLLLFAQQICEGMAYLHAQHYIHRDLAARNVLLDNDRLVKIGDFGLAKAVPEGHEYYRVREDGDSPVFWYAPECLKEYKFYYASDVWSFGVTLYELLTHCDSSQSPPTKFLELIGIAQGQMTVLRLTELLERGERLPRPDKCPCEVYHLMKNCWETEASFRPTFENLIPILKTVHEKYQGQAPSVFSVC
The experiment in a line: TYK2 inhibition (Table 4).

The Ki is a measure of affinity in units of concentration, obtained from inhibition or displacement.

T2 sequence (P52333 783-1124): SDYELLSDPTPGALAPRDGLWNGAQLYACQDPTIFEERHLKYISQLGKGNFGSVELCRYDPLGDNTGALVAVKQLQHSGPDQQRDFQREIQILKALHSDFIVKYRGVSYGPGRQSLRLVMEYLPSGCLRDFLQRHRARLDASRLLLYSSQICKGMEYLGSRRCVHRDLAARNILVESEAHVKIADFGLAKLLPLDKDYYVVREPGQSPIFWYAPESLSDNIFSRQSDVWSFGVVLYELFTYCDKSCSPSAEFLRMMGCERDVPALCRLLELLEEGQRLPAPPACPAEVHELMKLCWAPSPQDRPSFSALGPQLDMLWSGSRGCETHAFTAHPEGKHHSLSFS
T3 sequence (P23458 852-1154): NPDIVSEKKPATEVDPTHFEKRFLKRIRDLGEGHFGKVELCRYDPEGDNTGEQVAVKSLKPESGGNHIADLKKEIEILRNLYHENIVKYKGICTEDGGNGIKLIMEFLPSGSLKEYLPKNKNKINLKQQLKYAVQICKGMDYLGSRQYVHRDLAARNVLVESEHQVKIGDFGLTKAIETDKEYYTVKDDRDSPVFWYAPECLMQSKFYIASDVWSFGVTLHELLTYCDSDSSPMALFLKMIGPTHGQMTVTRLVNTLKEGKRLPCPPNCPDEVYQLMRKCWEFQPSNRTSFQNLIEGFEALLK
T1 sequence (O60674 812-1132): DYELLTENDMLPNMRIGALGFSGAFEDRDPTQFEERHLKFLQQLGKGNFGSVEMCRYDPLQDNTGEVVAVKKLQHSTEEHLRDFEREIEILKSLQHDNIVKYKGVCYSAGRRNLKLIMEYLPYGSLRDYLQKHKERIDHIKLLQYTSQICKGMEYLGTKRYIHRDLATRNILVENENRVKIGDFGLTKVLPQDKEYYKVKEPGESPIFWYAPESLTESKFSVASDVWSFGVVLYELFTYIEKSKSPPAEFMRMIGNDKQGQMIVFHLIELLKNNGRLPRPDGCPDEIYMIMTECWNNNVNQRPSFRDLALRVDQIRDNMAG

As to `N#CCC(=O)N1CCC[C@@H](n2c(CCO)nc3cnc4[nH]ccc4c32)C1` [Example 17, 3-{(R)-3-[2-(2-Hydroxy-ethyl)-6H-1,2,3,5,6-tetraaza-as-indacen-1-yl]-piperidin-1-yl}-3-oxopropionitrile], the Ki worked out at 17.1 nM at JAK2, 79.1 nM on JAK3, 4.04 nM at JAK1 and 29.8 nM on TYK2.

As to `N#Cc1ccc(CN2CC[C@@H](n3cnc4cnc5[nH]ccc5c43)C2)cc1` [Example 191, 4-[(R)-3-(6H-1,2,3,5,6-Tetraaza-as-indacen-1-yl)-pyrrolidin-1-ylmethyl]-benzonitrile], the Ki on JAK2 is 17.6 nM; at JAK3, 192 nM; on JAK1, 4.87 nM; on TYK2 it was 169 nM.

As to `N#CCCN1[C@@H]2CC[C@H]1C[C@H](n1cnc3cnc4[nH]ccc4c31)C2` [Example 98, 3-[(1S,3S,5R)-3-(6H-1,3,5,6-Tetraaza-as-indacen-1-yl)-8-aza-bicyclo[3.2.1]oct-8-yl]propionitrile], the Ki came out at 1.63 nM at JAK2, 11.8 nM at JAK3, 2.04 nM at JAK1 and 8.64 nM at TYK2.

Regarding `C[C@H](O)c1nc2cnc3[nH]ccc3c2n1C1CCOCC1` [Example 543, (S)-1-[1-(Tetrahydro-pyran-4-yl)-1,6-dihydro-1,3,5,6-tetraaza-as-indacen-2-yl]-ethanol], the Ki at JAK2 amounted to 384 nM; on JAK3, 179 nM; on JAK1, 82.6 nM; on TYK2, 274 nM.

In the case of `c1cc2c(ncc3nc(C4CCCN4)n(C4CCCOC4)c32)[nH]1` (single isomer, unassigned) [Example 668], the Ki at JAK2 is 2940 nM; at JAK3, 2620 nM; on JAK1 it was 1020 nM; on TYK2 it was 3240 nM.

On to `N#CCCN1CCC(n2c(COCC3CCCC3)nc3cnc4[nH]ccc4c32)CC1` [Example 838, 3-[4-(2-Cyclopentylmethoxymethyl-6H-1,3,5,6-tetraaza-as-indacen-1-yl)-piperidin-1-yl]-propionitrile], for which the Ki came out at 85.5 nM at JAK2, 90.4 nM at JAK3, 54.2 nM at JAK1 and 618 nM on TYK2.

`COCC(=O)NC1CCCC(n2cnc3cnc4[nH]ccc4c32)C1` (single isomer, unassigned) [Example 482, 2-Methoxy-N-[3-(6H-1,3,5,6-tetraaza-as-indacen-1-yl)-cyclohexyl]-acetamide]: the Ki at JAK2 stood at 97.6 nM; at JAK3, 150 nM; at JAK1, 55.8 nM; at TYK2 it was 845 nM.

Consider `CC(C)(C)OC(=O)N1CCC(n2cnc3cnc4[nH]ccc4c32)CC1` [Example 124, 4-(6H-1,2,3,5,6-Tetraaza-as-indacen-1-yl)-piperidine-1-carboxylic acid tert-butyl ester], for which the Ki was 33.2 nM on JAK2, 845 nM on JAK3, 24.5 nM on JAK1 and 225 nM at TYK2.

On to `CCN1CCC(n2c(CCNS(C)(=O)=O)nc3cnc4[nH]ccc4c32)C(F)(F)C1` (racemic) [Example 804, N-{2-[1-(1-Ethyl-3,3-difluoro-piperidin-4-yl)-1,6-dihydro-1,3,5,6-tetraaza-as-indacen-2-yl]-ethyl}-methanesulfonamide], for which the Ki was 25.2 nM on JAK2, 13.6 nM on JAK3, 2.97 nM at JAK1 and 172 nM on TYK2.

Regarding `CC(C)C(=O)NCc1nc2cnc3[nH]ccc3c2n1C1CCN(CCC#N)CC1` [Example 498, N-{1-[1-(2-Cyano-ethyl)-piperidin-4-yl]-1,6-dihydro-1,3,5,6-tetraaza-as-indacen-2-ylmethyl}-isobutyramide], the Ki at JAK2 stood at 67.7 nM; on JAK3, 60 nM; on JAK1, 21.9 nM; at TYK2 it was 307 nM.

In the case of `CCN1CCC(n2c([C@@H](C)O)nc3cnc4[nH]ccc4c32)C(F)(F)C1` (single isomer, unassigned) [Example 880], the Ki was 19.4 nM on JAK2, 4.97 nM at JAK3, 1.95 nM on JAK1 and 24.7 nM on TYK2.

Turning to `CN([C@H]1CC[C@H](n2cnc3cnc4[nH]ccc4c32)CC1)S(=O)(=O)C1CC1` [Example 341, Cyclopropanesulfonic acid methyl-[4-(6H-1,3,5,6-tetraaza-as-indacen1-yl)-cyclohexyl]-amide], the Ki on JAK2 was found to be 7.47 nM; at JAK3, 169 nM; at JAK1, 10.2 nM; on TYK2, 106 nM.

In the case of `CC(C)CC(=O)N[C@H]1CC[C@H](n2cnc3cnc4[nH]ccc4c32)CC1` [Example 215, 3-Methyl-N-[4-(6H-1,2,3,5,6-tetraaza-as-indacen-1-yl)-cyclohexyl]-butyramide], the Ki worked out at 7.88 nM on JAK2, 55.9 nM on JAK3, 1.89 nM on JAK1 and 92.7 nM on TYK2.

Take `CNC(=O)Cc1nc2cnc3[nH]ccc3c2n1C1CCN(Cc2ccccc2)CC1` [Example 21, 2-[1-(1-Benzyl-piperidin-4-yl)-1,6-dihydro-1,2,3,5,6-tetraaza-as-indacen-2-yl]-N-methyl acetamide]: the Ki on JAK2 was found to be 38.5 nM; at JAK3, 37.6 nM; on JAK1 it was 9.93 nM; on TYK2, 627 nM.

With `OC1CCCC(n2cnc3cnc4[nH]ccc4c32)C1` (single isomer, unassigned) [Example 559, 3-(6H-1,3,5,6-Tetraaza-as-indacen-1-yl)-cyclohexanol], the Ki at JAK2 was found to be 24 nM; at JAK3 it was 52.9 nM; on JAK1 it was 10.3 nM; at TYK2 it was 38.5 nM.

Consider `CC(C)N1CC(c2nc3cnc4[nH]ccc4c3n2C2CCN(CCC#N)CC2)CC1=O` (racemic) [Example 388, 3-{4-[2-(1-Isopropyl-5-oxo-pyrrolidin-3-yl)-6H-1,3,5,6-tetraaza-as-indacen-1-yl]-piperidin-1-yl}-propionitrile], for which the Ki at JAK2 was found to be 167 nM; at JAK3, 77.3 nM; at JAK1, 23.6 nM; on TYK2 it was 446 nM.

On to `N#Cc1cccc(CNC2CC(n3cnc4cnc5[nH]ccc5c43)C2)c1` (stereo not drawn) [Example 329, 3-{[3-(6H-1,3,5,6-Tetraaza-as-indacen-1-yl)-cyclobutylamino]-methyl}-benzonitrile], for which the Ki at JAK2 is 41.6 nM; on JAK3 it was 173 nM; at JAK1, 16.5 nM; on TYK2 it was 230 nM.

Regarding `Cc1nccn1Cc1nc2cnc3[nH]ccc3c2n1C1CCN(CCC#N)CC1` [Example 402, 3-{4-[2-(2-Methyl-imidazol-1-ylmethyl)-6H-1,3,5,6-tetraaza-as-indacen-1-yl]-piperidin-1-yl}-propionitrile], the Ki on JAK2 is 8.8 nM; on JAK3, 66.8 nM; at JAK1, 5.4 nM; on TYK2, 35.7 nM.

Regarding `N#Cc1ccc(CC(=O)N2CC[C@@H](n3cnc4cnc5[nH]ccc5c43)C2)cc1` [Example 431, 4-{2-Oxo-2-[(R)-3-(6H-1,3,5,6-tetraaza-as-indacen-1-yl)-pyrrolidin-1-yl]-ethyl}-benzonitrile], the Ki on JAK2 was found to be 175 nM; on JAK3, 3520 nM; on JAK1, 37.1 nM; on TYK2 it was 1150 nM.

In the case of `COC(=O)N1CCCC(n2c([C@@H](C)O)nc3cnc4[nH]ccc4c32)C1` (stereo partly drawn) [Example 670, (R)-3-[2-((R)-1-Hydroxy-ethyl)-6H-1,2,3,5,6-tetraaza-as-indacen-1-yl]-piperidine-1-carboxylic acid methyl ester], the Ki stood at 1750 nM at JAK2, 2170 nM at JAK3, 397 nM on JAK1 and 1520 nM on TYK2.

`Cc1nc2cnc3[nH]ccc3c2n1C1CN2CCC1CC2` (stereo not drawn) [Example 928, 1-(1-Aza-bicyclo[2.2.2]oct-3-yl)-2-methyl-1,6-dihydro-1,3,5,6-tetraaza-as-indacene]: the Ki on JAK2 turned out to be 206 nM; on JAK3 it was 449 nM; on JAK1, 125 nM; at TYK2, 887 nM.

For `CC(C)(C)OC(=O)N1CC(c2nc3cnc4[nH]ccc4c3n2C2CCN(Cc3ccccc3)CC2)C1` [Example 161, 3-[1-(1-Benzyl-piperidin-4-yl)-1,6-dihydro-1,2,3,5,6-tetraaza-as-indacen-2-yl]azetidine-1-carboxylic acid tert-butyl ester], the Ki stood at 31.8 nM at JAK2, 20.5 nM on JAK3, 11.6 nM on JAK1 and 386 nM on TYK2.

For `COCCN1CC[C@H](n2c([C@@H](C)O)nc3cnc4[nH]ccc4c32)C(F)(F)C1` [Example 1013, (R)-1-{1-[(S)-3,3-Difluoro-1-(2-methoxy-ethyl)-piperidin-4-yl]-1,6-dihydro-1,3,5,6-tetraaza-as-indacen-2-yl}-ethanol], the Ki on JAK2 was 11.1 nM; on JAK3, 28.9 nM; at JAK1 it was 2.15 nM; at TYK2, 11.3 nM.

Regarding `CC(C)(C)OC(=O)NC1CCCC(n2cnc3cnc4[nH]ccc4c32)C1` (single isomer, unassigned) [Example 477, [3-(6H-1,3,5,6-Tetraaza-as-indacen-1-yl)-cyclohexyl]-carbamic acid tert-butyl ester], the Ki worked out at 171 nM on JAK2, 236 nM at JAK3, 40.7 nM on JAK1 and 799 nM at TYK2.
